Laboratory results published in patent publication US20240254119A1 (THIRD HARMONIC BIO, INC., priority 2022, published 2024).

Each molecule was assayed against T1, wtKIT (Homo sapiens, UniProt P10721) (assay: HTRF biochemical assay, wtKIT (phosphorylation of a peptide substrate)). Conditions: Table 4.
T1 construct: 1888289AM in the reaction mixtures
Method: Exemplary compounds were tested for ability to inhibit the phosphorylation of a peptide substrate by the tyrosine kinase wt KIT, PDGFRα, or CSF-1R. Assay procedures and results are described below.
Enzyme, substrate, and cofactors (ATP and Mn^2+) are combined in a well of a microtiter plate and incubated for 3 hours at 25° C. At the end of the incubation, the reaction is quenched by the addition of an EDTA-containing buffer.
The substrate used in the CSF-1R and PDGFRα assay is FAM-[…]-CONH2 (FAM is carboxyfluorescein). Peptide should be >95% purity. The substrate for the KIT assay is FAM-[…]-NH2.
• 1. To a well of a 384-wellplate add 5 μL of 2× enzyme buffer (or control). • 2. Add 100 nL of 100× compound. Enzyme and compound may be pre-incubated at this time if desired. • 3. Add 5 μL of 2× substrate buffer. • 4. Incubate plate at 25° C. for 3 hours. • 5. Add 10 uL of anti-phosphotyrosine antibody buffer. • 6. Read plate in BioTek Synergy Reader. Reaction Conditions for wtKIT Assay
• 100 mM HEPES, pH 7.5 0.1% BSA • 0.01% Triton x-100 • 1 mM DTT • 10 mM MnCl2 • 10 μM Sodium Orthovanadate • 10 μM Beta-Glycerophosphate • 400 μM ATP • 1% DMSO (from compound) • 1 μM FAM-[…]-CONH2, 5.0 nM wtKIT Enzyme (1888289AM)* • *Specific activity may vary from lot to lot. Enzyme concentration may need to be adjusted to yield 10-20% conversion of substrate to product.

T1 sequence (P10721 26-976): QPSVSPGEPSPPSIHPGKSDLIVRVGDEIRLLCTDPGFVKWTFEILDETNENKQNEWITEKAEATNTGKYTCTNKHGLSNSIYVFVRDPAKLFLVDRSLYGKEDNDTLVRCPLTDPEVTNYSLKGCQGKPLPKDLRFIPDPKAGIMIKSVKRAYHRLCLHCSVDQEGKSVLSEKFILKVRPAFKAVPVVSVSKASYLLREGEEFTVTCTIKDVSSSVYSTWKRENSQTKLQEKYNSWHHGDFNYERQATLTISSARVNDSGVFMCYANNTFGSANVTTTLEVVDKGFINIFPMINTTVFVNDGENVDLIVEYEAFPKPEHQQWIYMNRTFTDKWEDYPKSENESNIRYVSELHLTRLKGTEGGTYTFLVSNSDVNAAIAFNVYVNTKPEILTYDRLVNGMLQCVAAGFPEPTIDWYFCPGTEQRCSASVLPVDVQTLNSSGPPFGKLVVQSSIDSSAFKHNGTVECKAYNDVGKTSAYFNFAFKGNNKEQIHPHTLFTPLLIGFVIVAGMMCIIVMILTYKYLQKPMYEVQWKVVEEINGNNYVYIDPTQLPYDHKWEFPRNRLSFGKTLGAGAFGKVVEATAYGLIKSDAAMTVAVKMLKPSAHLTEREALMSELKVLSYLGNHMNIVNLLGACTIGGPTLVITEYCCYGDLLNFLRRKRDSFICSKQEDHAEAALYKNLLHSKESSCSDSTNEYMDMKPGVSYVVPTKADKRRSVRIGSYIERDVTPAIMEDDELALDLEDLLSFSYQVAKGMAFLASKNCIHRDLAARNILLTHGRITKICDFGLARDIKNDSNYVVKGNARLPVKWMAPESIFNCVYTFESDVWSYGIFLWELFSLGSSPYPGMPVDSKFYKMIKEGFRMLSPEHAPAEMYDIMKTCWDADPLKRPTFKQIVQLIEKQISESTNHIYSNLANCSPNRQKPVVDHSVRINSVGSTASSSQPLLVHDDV

IC50 [µM]	Structure (SMILES)
≤ 0.05	Cc1ccc(-c2noc([C@H]3C[C@@H]3F)n2)cc1NC(=O)c1cnc2cc(C3CC(O)C3)ccn12 (stereo partly drawn) [Compound I-478, N-[5-[5-[(1R,2S)-2-fluorocyclopropyl]-1,2,4-oxadiazol-3-yl]-2-methyl-phenyl]-7-(3-hydroxycyclobutyl)imidazo[1,2-a]pyridine-3-carboxamide]
≤ 0.05	Cc1ccc(-c2noc([C@H]3C[C@@H]3F)n2)cc1NC(=O)c1cnc2cc([C@H]3C[C@@H]3CO)ccn12 [Compound I-480, N-[5-[5-[(1R,2S)-2-fluorocyclopropyl]-1,2,4-oxadiazol-3-yl]-2-methyl-phenyl]-7-[(1S,2S)-2 (hydroxymethyl)cyclopropyl]imidazo[1,2-a]pyridine-3-carboxamide]
≤ 0.05	Cc1ccc(-c2noc([C@H]3C[C@@H]3F)n2)cc1NC(=O)c1cnc2cc([C@@H]3C[C@H]3CO)ccn12 [Compound I-481, N-[5-[5-[(1R,2S)-2-fluorocyclopropyl]-1,2,4-oxadiazol-3-yl]-2-methyl-phenyl]-7-[(1R,2R)-2 (hydroxymethyl)cyclopropyl]imidazo[1,2-a]pyridine-3-carboxamide]
0.05 to 0.5	Cc1ccc(-c2noc([C@H]3C[C@@H]3F)n2)cc1NC(=O)c1cnn2cccc(F)c12 [Compound I-487]
≤ 0.05	Cc1ccc(-c2noc([C@H]3C[C@@H]3F)n2)cc1NC(=O)c1cnc2cc(COCC3(O)COC3)ccn12 [Compound I-490, N-(5-(5-((1R,2S)-2-fluorocyclopropyl)-1,2,4-oxadiazol-3-yl)-2-methylphenyl)-7-(((3-hydroxyoxetan-3-yl)methoxy)methyl)imidazo[1,2-a]pyridine-3-carboxamide]
0.05 to 0.5	Cc1ccc(-c2noc([C@H]3C[C@@H]3F)n2)cc1NC(=O)c1cnc2cc(C(=O)O)ccn12 [Compound I-491]
≤ 0.05	Cc1ccc(-c2noc([C@H]3C[C@@H]3F)n2)cc1NC(=O)c1cnn2ccc(OC(C)C)cc12 [Compound I-493, N-(5-(5-((1R,2S)-2-fluorocyclopropyl)-1,2,4-oxadiazol-3-yl)-2-methylphenyl)-5-isopropoxypyrazolo[1,5-a]pyridine-3-carboxamide]
≤ 0.05	Cc1ccc(-c2noc([C@H]3C[C@@H]3F)n2)cc1NC(=O)c1cnn2ccc(C(F)F)cc12 [Compound I-494, 5-(difluoromethyl)-N-(5-(5-((1R,2S)-2-fluorocyclopropyl)-1,2,4-oxadiazol-3-yl)-2-methylphenyl)pyrazolo[1,5-a]pyridine-3-carboxamide]
≤ 0.05	Cc1ccc(-c2noc([C@H]3C[C@@H]3F)n2)cc1NC(=O)c1cnn2ccc(F)cc12 [Compound I-496, 5-fluoro-N-[5-[5-[(1R,2S)-2-fluorocyclopropyl]-1,2,4-oxadiazol-3-yl]-2-methylphenyl]pyrazolo[1,5-a]pyridine-3-carboxamide]
≤ 0.05	Cc1ccc(-c2noc([C@H]3C[C@@H]3F)n2)cc1NC(=O)c1cnc2cc(COCC(C)(C)O)c(F)cn12 [Compound I-498, 6-fluoro-N-[5-[5-[(1R,2S)-2-fluorocyclopropyl]-1,2,4-oxadiazol-3-yl]-2-methyl-phenyl]-7-[(2-hydroxy-2-methyl-propoxy)methyl]imidazo[1,2-a]pyridine-3-carboxamide]
≤ 0.05	Cc1ccc(-c2noc([C@H]3C[C@@H]3F)n2)cc1NC(=O)c1cnc2cc(COCC(O)C(F)F)ccn12 (stereo partly drawn) [Compound I-499, 7-((3,3-difluoro-2-hydroxypropoxy)methyl)-N-(5-(5-((1R,2S)-2-fluorocyclopropyl)-1,2,4-oxadiazol-3-yl)-2-methylphenyl)imidazo[1,2-a]pyridine-3-carboxamide]

Structure (SMILES)	IC50 [µM]
Cc1ccc(-c2noc([C@H]3C[C@@H]3F)n2)cc1NC(=O)c1cnn2cc(F)ccc12 [Compound I-486, 6-fluoro-N-(5-(5-((1R,2S)-2-fluorocyclopropyl)-1,2,4-oxadiazol-3-yl)-2-methylphenyl)pyrazolo[1,5-a]pyridine-3-carboxamide]	≤ 0.05
